According to patent US12226410B2, “Methods for enhancing cellular clearance of pathological molecules via activation of the cellular protein ykt6” (NORTHWESTERN UNIVERSITY, priority 2019, dated 2025):

Tested on: GCase
Assay: FTI treatment of DASYN53 mice: GCase maturation and activity in midbrain
Type: in vivo
Conditions: i.p. 0.9 mg/kg, 26d
Procedure: FIGS. 7A, 7B, 7C, 7D, and 7E. FTI treatment restores functional membrane-associated ykt6 complexes in DASYN53 mice. 7A) Immunohistochemistry in the midbrain of mice showing ykt6, tyrosine hydroxylase (TH), NeuN, and nuclei (DAPI). Scale bar, 50 μm. 7B) Ykt6 membrane shift analysis in olfactory bulbs of FTI (LNK-754)-injected DASYN53 mice (12-14 months, i.p. 26d, 0.9 mg/kg) (n=5, non-transgenic (nTg)+veh; n=4, DASYN53+veh; n=4 DASYN53+FTI). GAPDH and sec22b are loading controls. 7C) SEC/western blot analysis of midbrains of FTI-treated DASYN53 mice. Inputs are shown on the left. NSE is a loading control. […] (n=3, nTg+veh; n=4, DASYN53+veh; n=4 DASYN53+FTI). 7D) Quantification of complexes from SEC in 7C. 7E) GCase maturation was assessed in midbrain lysates by endo H resistance (n=4, nTg+veh; n=4, DASYN53+veh; n=4 DASYN53+FTI). For all quantifications, each point represents a measurement from an individual animal. […]
FIGS. 8A, 8B, 8C, 8D, 8E, and 8F. […] 8B & 8C) Quantification of soluble and insoluble a-syn from midbrains of FTI-treated DASYN53 mice normalized to total protein (CBB). […] 8D) Midbrain TH levels were quantified by western blot of FTI-treated DASYN53 mice (n=3). […]
Analysis of post-ER GCase. […] Endo H resistant bands migrating at 62-64 kDa were measured as post-ER forms of GCase, and normalized to GAPDH levels. […]

Structure (SMILES): C#Cc1cccc(-c2cc(=O)n(C)c3ccc([C@](O)(c4ccc(Cl)cc4)c4cncn4C)cc23)c1 [LNK-754]
- enhancement of GCase activity in midbrain: ca. 40%
- GCase trafficking (mature, endo H resistant forms) (midbrain lysates): enhanced GCase trafficking
